This note sets out measurements from ChEMBL document CHEMBL1130689, “Cathepsin B-sensitive dipeptide prodrugs. 2. Models of anticancer drugs paclitaxel (Taxol), mitomycin C and doxorubicin” (Bioorg Med Chem Lett, 1998).

The species named for one data set is Rattus norvegicus. The data set can be described thus: The release rate of the free drug from the substrate in rat liver lysosomal preparation by rat liver lysosomal assay. The format is ADME.
Data set [1] is described as follows: The release rate of the free drug from the substrate in human plasma by human plasma stability assay; Not hydrolyzed. The format is ADME, cell-free.
A short description of data set [2]: The release rate of the free drug from the substrate in presence of Cathepsin B by Cathepsin B assay. The format is ADME.
The nature of data set [3]: The release rate of the free drug from the substrate in human plasma by human plasma stability assay. The format is ADME, cell-free.

In the case of `COc1cccc2c1C(=O)c1c(O)c3c(c(O)c1C2=O)C[C@@](O)(C(=O)CO)C[C@@H]3OC1CC(NC(=O)OCc2ccc(NC(=O)[C@H](CCCCN)NC(=O)[C@H](Cc3ccccc3)NC(=O)OCc3ccccc3)cc2)C(O)C(C)O1` (some centres not stated), the T1/2 in the data set filed under Rattus norvegicus is on record as 29 min; in data set [1], “Not hydrolyzed”; in data set [2], 8 min.
In the case of `CC(=O)O[C@H]1C(=O)[C@@]2(C)C([C@H](OC(=O)c3ccccc3)[C@]3(O)C[C@H](OC(=O)[C@H](OC(=O)OCc4ccc(NC(=O)[C@H](CCCCN)NC(=O)[C@H](Cc5ccccc5)NC(=O)OCc5ccccc5)cc4)[C@@H](NC(=O)c4ccccc4)c4ccccc4)C(C)=C1C3(C)C)[C@]1(OC(C)=O)COC1C[C@@H]2O` (some centres not stated), the T1/2 in the data set filed under Rattus norvegicus was 19 min; in data set [1], “Not hydrolyzed”; in data set [2] it was 540 min.
Turning to `COC12C(COC(N)=O)C3=C(C(=O)C(C)=C(N)C3=O)N1CC1C2N1C(=O)OCc1ccc(NC(=O)[C@H](CCCCN)NC(=O)[C@H](Cc2ccccc2)NC(=O)OC(C)(C)C)cc1` (some centres not stated), the T1/2 in the data set filed under Rattus norvegicus was 24 min; in data set [3] it was 149 h; in data set [2], 10 min.
On to `CC(=O)O[C@H]1C(=O)[C@@]2(C)C([C@H](OC(=O)c3ccccc3)[C@]3(O)C[C@H](OC(=O)[C@H](O)[C@@H](NC(=O)c4ccccc4)c4ccccc4)C(C)=C1C3(C)C)[C@]1(OC(C)=O)COC1C[C@@H]2OC(=O)OCc1ccc(NC(=O)[C@H](CCCCN)NC(=O)[C@H](Cc2ccccc2)NC(=O)OC(C)(C)C)cc1` (some centres not stated), for which the results for the T1/2 (in the data set filed under Rattus norvegicus; in data set [1]; in data set [2]) were 66 min, “Not hydrolyzed” and 40 min, respectively.
